{"source": "patent US20110319427A1", "about": "(priority 2009, published 2011)", "key": {"[1]": {"tested_on": "proteasome", "conditions": "non-competitive inhibitor binding the alpha subunits [8]; cited from earlier work"}, "[2]": {"tested_on": "THP1/WT", "conditions": "data from Oerlemans et al, 2008; cited from earlier work"}, "[3]": {"tested_on": "THP1/BTZ50", "conditions": "data from Oerlemans et al, 2008; cited from earlier work"}, "[4]": {"tested_on": "THP1/BTZ500", "conditions": "data from Oerlemans et al, 2008; cited from earlier work"}, "[5]": {"tested_on": "THP1/BTZ100", "conditions": "data from Oerlemans et al, 2008; cited from earlier work"}, "[6]": {"tested_on": "THP1/BTZ200", "conditions": "data from Oerlemans et al, 2008; cited from earlier work"}, "[7]": {"tested_on": "CEM cells over-expressing the multidrug resistant pumps Pgp, BCRP, or MRP1", "assay": "cell death in bortezomib-resistant CEM cells", "assay_type": "cell-based", "conditions": "CEM cells resistant to bortezomib by over-expression of Pgp"}, "[8]": {"target": "T1, α7-α7 half-proteasome of the T. acidophilum 20S proteasome (Thermoplasma acidophilum, UniProt P25156)", "T1 construct": "His-tag (N, cleaved yes); made in house", "T1 sequence (P25156 whole entry)": "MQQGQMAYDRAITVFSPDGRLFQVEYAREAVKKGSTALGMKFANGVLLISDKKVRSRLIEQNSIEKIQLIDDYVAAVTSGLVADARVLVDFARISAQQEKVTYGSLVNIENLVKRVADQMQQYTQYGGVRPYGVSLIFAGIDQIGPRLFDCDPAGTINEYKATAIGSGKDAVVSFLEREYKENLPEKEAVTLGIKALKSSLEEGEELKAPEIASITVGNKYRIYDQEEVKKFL", "assay": "inhibitor binding to the proteasome by NMR", "conditions": "50° C., methyl-labelled α7-α7", "source_text": "The 20S proteasome from T. acidophilum was produced as described previously with the alpha and beta subunits co-expressed from 2 different plasmids (where the beta subunit carried a C terminal His-tag). Samples of the half-proteasome comprised of pairs of alpha-rings, a7-a7, were produced by overexpression of the a subunit that carried a N-terminal cleavable His-tag that was removed during purification. Methyl labelling of proteins for NMR analysis was achieved by growing cells in D2O based minimal medium with ^2H-^12C glucose as the carbon source. One hour before induction of protein expression, alpha-ketobutyric acid (60 mg/L) and alpha-ketoisovaleric acid (100 mg/L; only one of the two isopropyl methyls was ^13CH3 labeled, the other ^12CD3) were added to introduce ^13CH3 methyl groups in Ile, Leu and Val. Proteins were purified by Ni-NTA affinity resin and size exclusion chromatography.\nNMR experiments with the (a7-a7) proteasome were performed on Varian 600 MHz spectrometers at 50° C. on samples that were ˜[…], 100% D2O, 25 mM potassium phosphate pH 6.8, 50 mM NaCl, 1 mM EDTA, 0.03% NaN3 and 2 mM DTT similar to previously described. NMR data was processed and analyzed with the nmrPipe/nmrDraw software package."}, "[9]": {"target": "T2, proteasomes isolated from rabbit reticulocytes", "T2 construct": "Ki", "assay_type": "biochemical", "conditions": "Lineweaver-Burk plot analysis, noncompetitive model", "method": "(§1) Data represent the mean±SD.\n(§2) After incubation, cleavage of the fluorogenic substrate Z-Leu-Leu-Glu-AMC was measured as above. […] The approximate binding sites of bortezomib that is located inside the catalytic chamber are also indicated.\n(§3) Proteasome complexes were isolated from rabbit reticulocytes and T. acidophilum as described previously.\n(§4) Data are expressed as mean values±SD. The statistical significance was computed with Student's t-test. […] Isobologram analysis was performed with CalcuSyn software (Biosoft, Ferguson, Mo., and Cambridge, UK). A combination index (CI) less than 1.0 indicated synergism."}, "[10]": {"tested_on": "T3, proteasomes isolated from rabbit reticulocytes", "T3 construct": "other: Lineweaver-Burk plot analysis; other: at the Fa 10; other: at the Fa 25; other: at the Fa 50", "assay_type": "biochemical", "conditions": "Lineweaver-Burk plot analysis", "method": "as §1, §2, §3, §4"}, "[11]": {"tested_on": "solid tumor cell lines", "assay": "cell viability MTS assay, solid tumor cell lines", "assay_type": "cell-based, human", "conditions": "72 hours, in 3/10 solid tumor cell lines"}, "[12]": {"tested_on": "OCI-AML2 or K562 human leukemia cells, MDAY-D2 murine leukemia cells in NOD-SCID mice", "assay": "mouse models of leukemia (xenograft), oral 5AHQ", "assay_type": "in vivo", "method": "Sublethally irradiated NOD/SCID mice were injected subcutaneously with U937 and K562 leukemia cells or intraperitoneally with MDAY-D2 leukemia cells. […] Eight (MDAY-D2) or ten (U937 and K562) days after tumor inoculation, mice were sacrificed, the subcutaneous or intraperitoneal tumor excised, and the weight of the tumors measured. The bars represent the median of the population. p values reflect the Mann-Whitney non-parametric test.\nMDAY-D2 murine leukemia cells (5×10^5) were injected intraperitoneally into sublethally irradiated (3.5 Gy) NOD/SCID mice (Ontario Cancer Institute, Toronto, Canada). […] Mice were sacrificed, and the weight and volume of the intraperitoneal tumors were measured.\nK562 leukemia cells (3×10^6) or U937 leukemia cells (2×10^6) were injected subcutaneously (s.c.) into the flank of sublethally irradiated NOD/SCID mice. […] Mice were then sacrificed, and the weight of the tumors was measured.\nSublethally irradiated NOD-SCID mice were injected subcutaneously with OCI-AML2 or K562 human leukemia cells or intraperitoneally with MDAY-D2 murine leukemia cells."}, "[13]": {"tested_on": "THP1/BTZ50", "assay": "cells", "conditions": "Homo sapiens, THP-1, 72 h, read-out: IC50 5AHQ", "description": "(§5) Cell lines. Human multiple myeloma (MM) and solid tumor cell lines were grown in Iscove's Modified Dulbecco's Medium (IMDM). […] These cells were maintained in bortezomib up to at least 7 days prior to the experiment. Media were supplemented with 10% fetal calf serum (FCS), 100 ug/mL penicillin, and 100 units/mL streptomycin (all from Hyclone, Logan, Utah).\n(§6) After incubation, cell viability was measured by trypan blue staining."}, "[14]": {"tested_on": "bortezomib-resistant THP1 leukemia cells (β5 proteasome subunit mutated and over-expressed)", "conditions": "72 hours, trypan blue staining", "description": "as §5, §6"}, "[15]": {"tested_on": "normal hematopoietic cells", "assay": "viability of normal hematopoietic cells (PBSC)", "assay_type": "cell-based, human", "method": "Forty-eight hours after treatment, cell viability was measured by the MTS assay. Data represent the mean±SD percent viability compared to buffer treated cells. D) Primary acute myeloid leukemia (AML) blasts (n=4), CLL (n=5) or normal peripheral blood stem cells (PBSC) (n=3) were obtained from the peripheral blood of consenting patients with AML, CLL or donors of PBSC for allotransplantation, respectively. […] Data represent the mean±SD percentage of viable cells compared to buffer treated cells.\nPrimary cells. Primary human acute myeloid leukemia (AML) and chronic lymphocytic leukemia (CLL) samples were isolated from peripheral blood samples from consenting patients with AML and CLL, respectively, who had at least 80% malignant cells among the mononuclear cells in their peripheral blood. Primary normal hematopoietic cells were obtained from healthy volunteers donating peripheral blood mononuclear stem cells (PBSC) for allotransplantation. […]\nCell viability was assessed by the MTS (Promega, Madison, Wis.) and Alamar Blue Fluorescence assays (Invitrogen, Carlsbad, Calif.) according to manufacturer's instructions and as previously described [14]. Apoptosis was measured by Annexin V-FITC (Biovision Research Products, Mountain View, Calif.) staining and flow cytometry according to manufacturer's instructions and as previously described."}, "[16]": {"tested_on": "proteasome in protein extracts from MDAY-D2 leukemia cells", "assay": "proteasome activity in cell extracts (Suc-LLVY-AMC)", "assay_type": "biochemical, murine", "conditions": "added to extracts derived from MDAY-D2 leukemia cells", "method": "A) Protein extracts from MDAY-D2 leukemia cells were treated with aliquots of compounds from a focused chemical library (final concentration 5 μM)."}, "[17]": {"assay": "LD50 in mice", "conditions": "mouse, in vivo"}, "[18]": {"target": "T4, proteasome isolated from archaebacterium T. acidophilum (Thermoplasma acidophilum, UniProt P25156)", "T4 construct": "made in house", "T4 sequence (P25156 whole entry)": "as above", "T4 sequence (P28061 9-211 partner)": "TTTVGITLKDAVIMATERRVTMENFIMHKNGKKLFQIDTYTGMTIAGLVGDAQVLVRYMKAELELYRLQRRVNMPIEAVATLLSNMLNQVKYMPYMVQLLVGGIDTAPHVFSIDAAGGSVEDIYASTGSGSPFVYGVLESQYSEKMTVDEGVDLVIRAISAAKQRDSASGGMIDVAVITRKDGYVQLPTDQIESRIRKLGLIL", "assay": "enzymatic activity of purified T. acidophilum proteasome (Suc-LLVY-AMC cleavage)", "assay_type": "biochemical", "source_text": "Data represent the mean±SD. A Lineweaver-Burk plot is presented as a fit to a noncompetitive model of inhibition.\nas §3"}, "[19]": {"tested_on": "THP1/BTZ200", "assay": "cells", "conditions": "Homo sapiens, THP-1, 72 h, read-out: IC50 5AHQ", "description": "as §5, §6"}, "[20]": {"tested_on": "THP1/BTZ100", "assay": "cells", "conditions": "Homo sapiens, THP-1, 72 h, read-out: IC50 5AHQ", "description": "as §5, §6"}, "[21]": {"tested_on": "myeloma cell lines", "assay": "cell viability MTS assay, myeloma cell lines", "assay_type": "cell-based, human", "conditions": "72 hours, in 7/7 myeloma cell lines"}, "[22]": {"tested_on": "chymotrypsin-like activity of the proteasome in leukemia, myeloma, and solid tumor cell lines", "assay": "proteasome activity after treatment of intact cells (Suc-LLVY-AMC)", "conditions": "intact cells treated 24 hours, then lysed", "description": "A) Myeloma, leukemia, and solid tumor cell lines were treated with increasing concentrations of 5AHQ. Twenty hours after treatment, cells were lysed and the preferential chymotrypsin-like substrate Suc-LLVY-AMC was added. The generation of free AMC was measured over time with a fluorescent spectrophotometric plate reader as described in the Materials and Methods. Data represent the mean±SD maximal rate of proteasomal activity expressed as a percentage of buffer treated cells.\nTo measure the effects of 5AHQ on the enzymatic activity of the proteasome in intact cells, solid tumor, leukemia and myeloma cell lines were treated with increasing concentrations of 5AHQ. Twenty hours after treatment, cells were lysed in 50 mM HEPES pH 7.5, 150 mM NaCl and 1% Triton X-100, and 2 mM ATP. To equal protein concentrations, the proteasome fluorogenic substrate, Suc-LLVY-AMC, was added and the generation of free AMC was measured over time with a fluorescent spectrophotometric plate reader as above.\nLeukemia, myeloma, and solid tumor cell lines were treated with increasing concentration of 5AHQ for 24 hours. After treatment, cells were harvested, lysed, and the chymotrypsin-like activity of the proteasome was measured by monitoring the rate of cleavage of the fluorescent substrate Suc-LLVY-AMC."}, "[23]": {"tested_on": "LP1 myeloma cell lines", "assay": "ubiquitinated proteins by immunoblotting", "assay_type": "cell-based, human", "conditions": "24 hours after treatment", "method": "Whole cell lysates were prepared from myeloma cells as described previously. Briefly, cells were washed with phosphate-buffered saline (PBS, pH 7.4) and re-suspended in lysis buffer [10 mM Tris (pH 7.4), 150 mM NaCl, 0.1% Triton X-100, 0.5% sodium deoxycholate, and 5 mM EDTA] containing protease inhibitors (Complete tablets, Roche, Indianapolis, Ind.). Protein concentrations were determined by the Bradford assay. Equal amounts of protein were subjected to SDS-PAGE gels followed by transfer to nitrocellulose membranes. Membranes were probed with rabbit anti-human polyclonal anti-ubiquitin (1:1000 v/v) (Calbiochem, San Diego, Calif.), or mouse monoclonal anti-beta actin (1:10,000 v/v) (Sigma) followed by secondary horseradish peroxidase (HRP)-conjugated goat anti-mouse (1:10,000 v/v) or anti-rabbit IgG (1:5,000 v/v) (Amersham Bioscience UK, Little Chalfont, England). Detection was performed by the Enhanced Chemical Luminescence (ECL) method (Pierce, Rockford, Ill.).\nTwenty four hours after treatment, the abundance of ubiquitinated proteins in the cells was measured by immunoblotting."}, "[24]": {"tested_on": "leukemia cell lines", "assay": "cell viability MTS assay, leukemia cell lines", "assay_type": "cell-based, human and murine", "conditions": "72 hours, in 6/10 leukemia cell lines"}, "[25]": {"tested_on": "NFkappaB p50 subunit DNA binding in MDAY-D2 cells", "assay": "NFkappaB activity (p50 DNA-binding ELISA)", "assay_type": "cell-based, murine", "conditions": "24 hours 5AHQ, with and without TNF-alpha", "method": "NFkappaB activity was measured using the Trans-AM NFkappaB p65 transcription factor assay kit (Active Motif, Carlsbad, Calif.) according to the manufacturer's instructions. […] Nuclear extracts were prepared using the Nuclear Extract kit (Active Motif, Carlsbad, Calif.) according to the manufacturer's instructions. Binding of the NFkappaB transcription factor subunit p50 to the DNA consensus sequence (5′-[…]-3′) cross linked to 96-well plates was measured using enzyme-linked immunosorbent assay (ELISA) technology with absorbance reading according to the manufacturer's protocol."}, "[26]": {"tested_on": "THP1/BTZ500", "assay": "cells", "conditions": "Homo sapiens, THP-1, 72 h, read-out: IC50 5AHQ", "description": "as §5, §6"}}, "note": "Peptide text beside a SMILES is read from it. * marks the point of attachment. Cbz = O=C(OCc1ccccc1)*", "data": [{"smiles": "CCN(CC)CCCC(C)Nc1ccnc2cc(Cl)ccc12", "note": "(centres unmarked) [chloroquine]", "values": [{"measurement": "proteasome inhibition relative to 5AHQ", "setting": "[1]", "result": "much weaker proteasome inhibitor than 5AHQ"}]}, {"smiles": "CC(C)C[C@H](NC(=O)[C@H](Cc1ccccc1)NC(=O)c1cnccn1)B(O)O", "note": "[bortezomib, [(1R)-3-Methyl-1-[[(2S)-1-oxo-3-phenyl-2-[(pyrazinylcarbonyl)amino]propyl]amino]butyl]boronic acid]", "values": [{"measurement": "RF BTZ (Resistance Factor)", "setting": "[2]", "result": 1}, {"measurement": "RF BTZ (Resistance Factor)", "setting": "[3]", "result": 45}, {"measurement": "RF BTZ (Resistance Factor)", "setting": "[4]", "result": 237}, {"measurement": "RF BTZ (Resistance Factor)", "setting": "[5]", "result": 79}, {"measurement": "RF BTZ (Resistance Factor)", "setting": "[6]", "result": 129}]}, {"smiles": "Nc1ccc(O)c2ncccc12", "note": "[5AHQ, 5-amino-8-hydroxyquinoline]", "values": [{"measurement": "sensitivity to 5AHQ-induced cell death", "setting": "[7]", "result": "remained equally sensitive to 5AHQ-induced cell death"}, {"measurement": "NMR spectral changes on binding", "setting": "[8]", "result": "clear spectral changes localized to residues Ile159, Val113, Val87, Val82, Leu112, Val89, Val134, Val24 and Leu136"}, {"measurement": "Ki", "setting": "[9]", "result": "2.1 ± 0.18", "unit": "µM"}, {"measurement": "mode of inhibition", "setting": "[10]", "result": "noncompetitively"}, {"measurement": "LD50", "setting": "[11]", "result": "< 5", "unit": "µM"}, {"measurement": "decrease of tumor weight and volume compared to control", "setting": "[12]; 50 mg/kg/day by oral gavage, all 3 mouse models", "result": "at least 50%"}, {"measurement": "weight loss or gross organ toxicity", "setting": "[12]; mouse, in vivo", "result": "without causing weight loss or gross organ toxicity"}, {"measurement": "IC50", "setting": "[13]", "result": "6.6 ± 0.4", "unit": "µM"}, {"measurement": "sensitivity to 5AHQ", "setting": "[14]", "result": "remained essentially fully sensitive to 5AHQ"}, {"measurement": "concentration up to which not cytotoxic", "setting": "[15]", "result": "> 62.5", "unit": "µM"}, {"measurement": "inhibition of the enzymatic activity of the proteasome", "setting": "[16]", "result": "inhibited the enzymatic activity of the proteasome at low micromolar concentrations"}, {"measurement": "LD50", "setting": "[17]", "result": "> 1000", "unit": "mg/kg"}, {"measurement": "Ki", "setting": "[18]", "result": "161 ± 4", "unit": "µM"}, {"measurement": "mode of inhibition", "setting": "[18]; Lineweaver-Burk plot", "result": "non-competitive kinetics"}, {"measurement": "IC50", "setting": "[19]", "result": "6.4 ± 0.7", "unit": "µM"}, {"measurement": "IC50", "setting": "[20]", "result": "6.3 ± 0.4", "unit": "µM"}, {"measurement": "LD50", "setting": "[21]", "result": "< 5", "unit": "µM"}, {"measurement": "rate of Suc-LLVY-AMC cleavage", "setting": "[22]", "result": "inhibited the rate of Suc-LLVY-AMC cleavage"}, {"measurement": "amount of ubiquitinated protein", "setting": "[23]", "result": "increased the amount of ubiquitinated protein"}, {"measurement": "LD50", "setting": "[24]", "result": "< 5", "unit": "µM"}, {"measurement": "NFkappaB activity", "setting": "[25]", "result": "inhibited basal and TNF-alpha stimulated NFkappaB activity"}, {"measurement": "IC50", "setting": "[26]", "result": "6.6 ± 0.9", "unit": "µM"}]}, {"smiles": "CC(C)C[C@@H](C=O)NC(=O)[C@H](CC(C)C)NC(=O)[C@H](CC(C)C)NC(=O)OCc1ccccc1", "note": "[MG132, reference compound] (Cbz-Leu-Leu-Leu-aldehyde)", "values": [{"measurement": "mode of inhibition", "setting": "[10]", "result": "competitively"}]}]}
